Measurements published in patent publication US20040170622A1, “Methods and compositions for modulating XBP-1 activity” (President and Fellows of Harvard College, priority 2002, published 2004).
Where a SMILES comes first, the peptide text is derived from it. The star is where a group is joined. Cbz = O=C(OCc1ccccc1)*

Experiments:
BiP and CHOP = assay: UPR target gene expression in NIH3T3 and J558 myeloma cells (Northern blot); assay type: cell-based; conditions: for induction of UPR target genes (BiP, CHOP), agent alone: MG-132 20 μM, Tm 10 μg/ml
Procedure: (A) BiP and CHOP induction was examined by northern blot analysis after treating NIH3T3 or J558 myeloma cells with either MG-132 (20 μM), Tm (10 μg/ml) or both. Cells were pretreated with MG-132 for 1 hr and then further treated with Tm for 4 hrs. Ethidium bromide staining of the gel is shown at the bottom. (B) Inhibition of caspase-12 processing by proteasome inhibitors. Processing of full-length caspase-12 was examined by Western blotting in J558 myeloma cells treated with thapsigargin (1 μM) or PIs (20 μM) during the indicated time periods. (C) Alteration in the ratio of XBP-1 protein species in J558 cells were treated with increasing amounts of MG-132 for 16 hrs. Cells undergoing apoptosis were counted by Annexin V staining. (D) Time course of the XBP-1s to XBP-1u shift. Cells were treated with MG-132 (1 μM) for the indicated times and XBP-1u and spliced protein levels and cell death determined. (E) Alteration in the ratio of XBP-1 species in the MM.1s human myeloma line. Cells were treated with PS-341 (8 nM) in a time course analysis and XBP-1 protein species quantified.
Total RNA was prepared by using Trizol reagent, electrophoresed on 1.2% agarose, 6% formaldehyde gels and then transferred onto Genescreen Plus membrane, (NEN, Boston, Mass.). […] Probes for ERdj4 and p58^IPK were generated from cDNA excised from EST clones (ATCC, Manassas, Va.) using appropriate restriction enzymes (ERdj4, IMAGE: 1920927; p58^IPK, IMAGE:2646147).
The maturation and folding of ER membrane and secretory proteins relies on the activity of ER-resident chaperones and folding enzymes. ER proteins that ultimately fail to fold properly are degraded by the 26S proteasome, or ERAD. […] To test the effect of proteasome dysfunction on UPR activation, NIH3T3 fibroblasts (left panel) and J558 myeloma cells (right panel) were treated with the proteasome inhibitor (PI) MG-132 in the presence or absence of the ER stress inducer, tunicamycin (Tm), and the expression of UPR target genes assessed (FIG. 10a).

ERdj4 promoter = assay: ERdj4GL3 promoter luciferase reporter in MEF cells; assay type: cell-based; conditions: wt MEF, Tm 1 μg/ml 16 hours or cotransfected XBP-1s
Procedure: (A) Wild type and XBP-1^−/− MEF cells were treated with 10 μg/ml Tm for the indicated time periods. Total RNAs were isolated and subjected to Northern blot analysis. The same blot was hybridized sequentially with BiP, CHOP, ERdj4, p58^ipk, ATF6α and Gla probes. The p58^ipk probe is probe A, from the 5′ end of the gene. Ethidium bromide staining of the gel before blotting is shown at the bottom for loading control. (B) All isoforms of p58^ipk are XBP-1 dependent. Here, Northern blot analysis was performed with probe B which recognizes sequences at the 3′ end of the gene. (C) XBP-1-dependent genes are also IRE1α-dependent. Northern blot analysis of RNA prepared from IRE 1α^−/− MEFs treated with Tm for varying time periods and assessed for expression of ERdj4 and p58^ipk. (D) The ERdj4GL3 reporter was transfected with or without XBP-1s plasmid into wild type and XBP-1^−/− MEF cells. Cells were treated with Tm at 1 μg/ml for 16 hours before harvesting as indicated. Luciferase activity was normalized to the Renilla activity. (E) Induction of BiP, ERdj4 and p58^ipk in primary B cells by LPS. B220+ primary B cells were isolated from spleens of wildtype or XBP-1^−/− RAG2^−/− lymphoid chimeras. Cells were untreated or stimulated for three days with 20 μg/ml LPS. Expression of BiP, ERdj4 and p58^ipk was determined by Northern blot analysis […]

## CC(C)C[C@@H](C=O)NC(=O)[C@H](CC(C)C)NC(=O)[C@H](CC(C)C)NC(=O)OCc1ccccc1 [MG-132] (Cbz-Leu-Leu-Leu-aldehyde)
BiP and CHOP
  induction of UPR target genes (BiP, CHOP), agent alone: also induced the UPR
BiP and CHOP; MG-132 pretreatment 1 hr, then Tm 4 hrs, NIH3T3 and J558
  effect on Tm-induced stress response: blocked rather than further augmented the Tm-induced stress response

## tunicamycin [Tm]
BiP and CHOP
  induction of UPR target genes (BiP, CHOP), agent alone: induction of expression of representative UPR target genes such as BiP (Grp78) and CHOP
ERdj4 promoter
  ERdj4 promoter luciferase reporter induction: induced by Tm as well as by cotransfected XBP-1s

B1: XBP-1s: vector encoding only the spliced form of murine XBP-1, a protein of 371 aa (protein)
chain: MVVVAAAPSAATAAPKVLLLSGQPASGGRALPLMVPGPRAAGSEASGTPQARKRQRLTHLSPEEKALRRKLKNRVAAQTARDRKKARMSELEQQVVDLEEENHKLQLENQLLREKTHGLVVENQELRTRLGMDTLDPDEVPEVEAKGSGVRLVAGSAESAAGAGPVVTSPEHLPMDSDTVASSDSESDILLGILDKLDPVMFFKCPSPESASLEELPEVYPEGPSSLPASLSLSVGTSSAKLEAINELIRFDHVYTKPLVLEIPSETESQTNVVVKIEEAPLSSSEEDHPEFIVSVKKEPLEDDFIPELGISNLLSSSHCLRPPSCLLDAHSDCGYEGSPSPFSDMSSPLGTDHSWEDTFANELFPQLISV
ERdj4 promoter
  ERdj4 promoter luciferase reporter induction: induced by Tm as well as by cotransfected XBP-1s
